Reference: US20250163379A1, “METHOD FOR DIFFERENTIATING HEMATOPOIETIC STEM/PROGENITOR CELLS INTO NK CELLS” (HEMACELL BIOTECHNOLOGY INC., priority 2022, published 2025)

Key:
[1] = system: hematopoietic stem/progenitor cells; experiment: Inducing differentiation of hematopoietic stem/progenitor cells into NK cells (CD3-CD56+); format: cell-based; conditions: GABA pathway activator in initial differentiation medium; control group 75.6%; FIG. 1
Procedure: (§1) The experiment was carried out according to the following steps: • (1) Inoculating hematopoietic stem/progenitor cells into an initial differentiation medium and culturing at 35-39° C. and 3-7%0CO2 for 5 days; • (2) Continuing culturing cells in NIK differentiation medium I for 3-5 days; • (3) Continuing culturing the cells in NK differentiation medium II; replacing half of the culture medium every 5 to 6 days for 22 to 28 days or until NK cells are obtained. • (4) Basal differentiation medium: DMEM high glucose medium, Ham's F-12Nutrient Mix, GlutaMAX™ supplement medium, heat-inactivated human AB serum, L-glutamic acid, 2-mercaptoethanol, sodium selenite, aminoethanol and L-ascorbic acid. • (5) Initial differentiation medium: basal differentiation medium, SCF (15-25 ng/mL); IL3 (3-7 ng/mL); IL7 (15-25 ng/mL); IL15 (8-12 ng/mL); Flt3-L (8-12 ng/mL); GABA pathway activator. • (6) NK differentiation medium I: basal differentiation medium; SCF (15-25 ng/mL); IL3 (3-7 ng/mL); IL7 (15-25 ng/mL); IL15 (8-12 ng/mL); Flt3-L (8-12 ng/mL). • (7) NK differentiation medium II: basal differentiation medium; SCF (15-25 ng/mL); IL15 (8-12 ng/mL); IL7 (15-25 ng/mL); Flt3-L (8-12 ng/mL).
CD3 is a marker of T cells, CD56 is a marker of NK cells, and the characterization of NK cells is CD3-CD56+. […]

[2] = system: hematopoietic stem/progenitor cells; experiment: Flow cytometry analysis of induced NK cells for cytotoxic markers (CD16, CD314, CD335, CD336); format: cell-based; conditions: for efficiency of obtaining CD16+CD56+ NK cells: control group 5.45%, FIG. 2; for efficiency of obtaining CD314+ NK cells: control group 10.1%, FIG. 3; for efficiency of obtaining CD335+ NK cells: control group 12.4%, FIG. 4; for efficiency of obtaining CD336+ NK cells: control group 35.7%, FIG. 5
Procedure: as §1
Flow cytometry analysis of induced NK cells
(1) Collection of NK cells: The cells were centrifuged at 300 g for 5 min; the supernatant was discarded, an equal volume of FACS buffer was added to wash and resuspend the cells, and the cells were centrifuged; the above steps were repeated twice; the cells were centrifuged and the supernatant was discarded, and thereafter, 125 μL of FACS buffer was added to resuspend the cells.
(2) Cell staining: 2.5 μL of labeled antibody was added to the cell suspension (volume ratio of labeled antibody:cell=1:50), the system was mixed well, and allowed to react at room temperature in the dark for 30 min; after centrifugation, the supernatant was discarded; 1 mL of FACS buffer was added to wash and resuspend the cells, the cells were centrifuged, and the above steps were repeated twice; the cells were centrifuged and the supernatant was discarded, and thereafter 250 μL of FACS buffer was added to resuspend the cells, the system was transferred to a Falcon flow tube, and placed on ice; 0.25 μL of DAPI was added before loading, the system was mixed well for later loading and detection.
(3) Preparation of single-color compensation control: The microspheres were mixed evenly by inverting vigorously at least 10 times or pulse vortexing; to each EP tube, 1 drop of UltraCompe Beads was added, then 1 μL of fluorescent antibody conjugate was added, the system was well mixed by blowing-suction with a pipette, and incubated at room temperature in the dark for 30 min; 1 mL of FACS buffer was added to each EP tube, the system was centrifuged at 400 g for 5 min at room temperature; the supernatant was sucked out carefully without removing the beads, and then 250 μL of FACS buffer was added to each test tube; the sample was mixed evenly by flicking or pulse vortexing before analysis.
(4) Detection on the flow cytometer: Before detection, the stained cells were placed on ice to prevent cell aggregation; at least 10,000 cells were tested for each sample; unstained cells were analyzed on the flow cytometer, and appropriate FSC and side scatter SSC as well as the voltage of the fluorescence detector PMT were set. […]

Compound	efficiency of obtaining NK cells (CD3-CD56+) [1]	efficiency of obtaining CD16+CD56+ NK cells [2]	efficiency of obtaining CD314+ NK cells [2]	efficiency of obtaining CD335+ NK cells [2]	efficiency of obtaining CD336+ NK cells [2]
NCCCC(=O)O [GABA, γ-aminobutyric acid]	88.3%	5.86%	11.0%	18.2%	48.2%
NC/C=C/C(=O)O [TACA, trans-4-aminocrotonic acid]	87.2%	9.71%	18.4%	21.1%	48.8%
